Key:
[1] = target: T1, TetOn hLOX-1 CHO cells (human LOX-1) (Homo sapiens, UniProt P78380); experiment: Binding of DiI-labeled oxidized LDL to LOX-1 expressing cells under low temperature conditions; type: cell-based; details: trimeric procyanidins of different structure at 0.1 μg/ml, on ice; Example 5
T1 construct: expressed in transfected cells
Method: It is said that caveola or clathrin is also involved in the incorporation of oxidized LDL into the cells, in addition to that mediated by LOX-1.
First, 100 μl of the suspension of LOX-1 expressing cells adjusted with the above culture medium so as to achieve a density of 1×10^5 cells/ml was dispensed into each well of a 96-well plate (manufactured by Costar, Product Number: 3603). In addition, in order to induce the expression of LOX-1, doxycycline (manufactured by Calbiochem) was added so that the final concentration thereof was 1 μg/ml. As a control, a well where no doxycycline was added so that no expression was induced was also prepared. This 96-well plate was incubated at 37° C. for 24 hours in a CO2 incubator, and each well was then washed with the aforementioned FBS(−) medium cooled to 4° C. […]
This 96-well plate was observed using the In Cell Analyzer 1000 system (manufactured by GE healthcare) to measure the DiI fluorescence intensity and the number of nuclei per each well, and the fluorescence intensity per single cell was determined in the same manner as in Example 2.
Further, the oxidized LDL binding rate (%) was calculated by the following formula (3). […]
Subsequently, the effects of these four types of trimeric procyanidins on the inhibition of the bonding between LOX-1 and oxidized LDL were evaluated. […]

ex-hLOX-1 protein = target: T2, ex-hLOX-1 protein (Homo sapiens, UniProt P78380); experiment: BIACORE measurement of direct bonding of procyanidins and LOX-1; details: monomers to heptamers at 20 μM; peak 3 trimers at 1.25-20 μM; 120 s binding, 120 s dissociation; read-out: Dissociation Constant
T2 construct: IgK secretion signal (printed 'IgK selection signal') (N, cleaved yes); His tag (from vector pSecTag/FRT/V5His); made in house; host or cells: 293F cells (FreeStyle 293 Expression System)
Method: The direct bonding of procyanidins and LOX-1 was evaluated using the BIACORE system.
LOX-1 was fixed on a sensor chip, and the BIACORE measurement was carried out using the procyanidins as the liquid phase. The BIACORE measurements and analyses were conducted using the BIACORE 2000 (GE Healthcare). In addition, the sensor chip CM5 was used as a sensor chip, and the ex-hLOX-1 protein was immobilized on the sensor chip by employing the amine coupling method. A HEPES solution (consisted of 10 mM HEPES, 150 mM NaCl and 2 mM CaCl2) was degassed and used as the running buffer.
Among the procyanidins made to flow through the chip, monomeric to heptameric procyanidins were each adjusted to 20 μM using the running buffer and used for the measurement.
In addition, when the procyanidins were reacted in the sensor chip, the flow rate was set to 20 μl/min, and the dissociation constant was measured with 120 seconds of binding and 120 seconds of dissociation.

Compound	oxidized LDL binding rate (LOX-1 inhibiting activity) [1]	Kd (ex-hLOX-1 protein) [µM]
Oc1cc(O)c2c(c1)O[C@H](c1ccc(O)c(O)c1)[C@H](O)[C@H]2c1c(O)cc2c(c1O)[C@H](c1c(O)cc(O)c3c1O[C@H](c1ccc(O)c(O)c1)[C@@H](O)C3)[C@@H](O)[C@@H](c1ccc(O)c(O)c1)O2 (single isomer, unassigned; peak 2) [peak 2, epi (4β → 6) epi (4β → 8) cat]	exhibited stronger LOX-1 inhibiting activities than the trimeric procyanidins represented by peaks 1 and 4	–
Oc1cc(O)c2c(c1)O[C@H](c1ccc(O)c(O)c1)[C@H](O)[C@H]2c1c(O)cc2c(c1O)C(c1c(O)cc(O)c3c1O[C@H](c1ccc(O)c(O)c1)[C@H](O)C3)[C@@H](O)[C@@H](c1ccc(O)c(O)c1)O2 (single isomer, unassigned; peak 3) [peak 3, epi (4β → 6) epi (4β → 8) epi]	exhibited stronger LOX-1 inhibiting activities than the trimeric procyanidins represented by peaks 1 and 4	3.8
